{"source": "paper PMC12816581", "about": "(Nature Communications, 2025)", "key": {"WDR91": {"target": "T1, WDR91 (Homo sapiens, UniProt A4D1P6)", "T1 sequence (A4D1P6 1-747)": "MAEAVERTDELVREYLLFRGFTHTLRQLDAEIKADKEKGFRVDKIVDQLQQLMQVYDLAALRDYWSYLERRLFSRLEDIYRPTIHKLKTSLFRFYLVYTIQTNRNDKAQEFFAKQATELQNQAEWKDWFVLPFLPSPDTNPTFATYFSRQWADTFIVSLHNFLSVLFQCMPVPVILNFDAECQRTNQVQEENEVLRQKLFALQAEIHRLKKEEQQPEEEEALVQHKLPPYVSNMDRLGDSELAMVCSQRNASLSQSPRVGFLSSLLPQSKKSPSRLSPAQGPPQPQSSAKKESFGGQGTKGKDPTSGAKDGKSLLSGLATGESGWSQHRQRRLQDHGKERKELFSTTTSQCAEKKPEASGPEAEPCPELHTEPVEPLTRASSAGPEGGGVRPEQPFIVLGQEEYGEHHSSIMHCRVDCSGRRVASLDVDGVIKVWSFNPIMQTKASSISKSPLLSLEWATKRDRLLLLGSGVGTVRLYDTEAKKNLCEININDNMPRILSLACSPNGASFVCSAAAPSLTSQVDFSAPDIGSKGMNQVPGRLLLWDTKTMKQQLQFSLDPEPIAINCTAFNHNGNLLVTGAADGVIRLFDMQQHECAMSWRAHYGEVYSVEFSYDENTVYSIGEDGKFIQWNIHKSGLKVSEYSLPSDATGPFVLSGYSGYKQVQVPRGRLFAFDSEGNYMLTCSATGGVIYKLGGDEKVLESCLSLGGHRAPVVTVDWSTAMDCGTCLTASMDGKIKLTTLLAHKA", "assay_type": "binding"}, "[1]": {"assay": "Chiral stability assessment via hydrogen-deuterium", "assay_type": "physicochemical", "conditions": "binding buffer with D2O, 4 °C, 8 h; indicates potential spontaneous racemization"}, "WDR55 [2]": {"target": "T2, WDR55 (Homo sapiens, UniProt Q9H6Y2)", "T2 sequence (Q9H6Y2 1-383)": "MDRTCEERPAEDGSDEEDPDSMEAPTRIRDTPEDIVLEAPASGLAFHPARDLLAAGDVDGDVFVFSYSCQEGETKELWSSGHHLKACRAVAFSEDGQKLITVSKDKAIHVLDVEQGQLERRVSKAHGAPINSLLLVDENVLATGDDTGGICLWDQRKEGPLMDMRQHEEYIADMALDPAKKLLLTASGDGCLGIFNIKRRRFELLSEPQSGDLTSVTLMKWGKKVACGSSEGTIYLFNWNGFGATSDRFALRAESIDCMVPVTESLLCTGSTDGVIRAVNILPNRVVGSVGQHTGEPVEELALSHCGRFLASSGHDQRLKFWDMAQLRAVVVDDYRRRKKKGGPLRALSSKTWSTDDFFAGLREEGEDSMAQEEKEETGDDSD", "assay_type": "binding"}, "WDR55 [3]": {"target": "T2, WDR55", "assay": "biochemical", "assay_type": "binding"}, "DCAF1": {"target": "DCAF1 (Homo sapiens, UniProt Q9Y4B6)", "sequence (Q9Y4B6 whole entry)": "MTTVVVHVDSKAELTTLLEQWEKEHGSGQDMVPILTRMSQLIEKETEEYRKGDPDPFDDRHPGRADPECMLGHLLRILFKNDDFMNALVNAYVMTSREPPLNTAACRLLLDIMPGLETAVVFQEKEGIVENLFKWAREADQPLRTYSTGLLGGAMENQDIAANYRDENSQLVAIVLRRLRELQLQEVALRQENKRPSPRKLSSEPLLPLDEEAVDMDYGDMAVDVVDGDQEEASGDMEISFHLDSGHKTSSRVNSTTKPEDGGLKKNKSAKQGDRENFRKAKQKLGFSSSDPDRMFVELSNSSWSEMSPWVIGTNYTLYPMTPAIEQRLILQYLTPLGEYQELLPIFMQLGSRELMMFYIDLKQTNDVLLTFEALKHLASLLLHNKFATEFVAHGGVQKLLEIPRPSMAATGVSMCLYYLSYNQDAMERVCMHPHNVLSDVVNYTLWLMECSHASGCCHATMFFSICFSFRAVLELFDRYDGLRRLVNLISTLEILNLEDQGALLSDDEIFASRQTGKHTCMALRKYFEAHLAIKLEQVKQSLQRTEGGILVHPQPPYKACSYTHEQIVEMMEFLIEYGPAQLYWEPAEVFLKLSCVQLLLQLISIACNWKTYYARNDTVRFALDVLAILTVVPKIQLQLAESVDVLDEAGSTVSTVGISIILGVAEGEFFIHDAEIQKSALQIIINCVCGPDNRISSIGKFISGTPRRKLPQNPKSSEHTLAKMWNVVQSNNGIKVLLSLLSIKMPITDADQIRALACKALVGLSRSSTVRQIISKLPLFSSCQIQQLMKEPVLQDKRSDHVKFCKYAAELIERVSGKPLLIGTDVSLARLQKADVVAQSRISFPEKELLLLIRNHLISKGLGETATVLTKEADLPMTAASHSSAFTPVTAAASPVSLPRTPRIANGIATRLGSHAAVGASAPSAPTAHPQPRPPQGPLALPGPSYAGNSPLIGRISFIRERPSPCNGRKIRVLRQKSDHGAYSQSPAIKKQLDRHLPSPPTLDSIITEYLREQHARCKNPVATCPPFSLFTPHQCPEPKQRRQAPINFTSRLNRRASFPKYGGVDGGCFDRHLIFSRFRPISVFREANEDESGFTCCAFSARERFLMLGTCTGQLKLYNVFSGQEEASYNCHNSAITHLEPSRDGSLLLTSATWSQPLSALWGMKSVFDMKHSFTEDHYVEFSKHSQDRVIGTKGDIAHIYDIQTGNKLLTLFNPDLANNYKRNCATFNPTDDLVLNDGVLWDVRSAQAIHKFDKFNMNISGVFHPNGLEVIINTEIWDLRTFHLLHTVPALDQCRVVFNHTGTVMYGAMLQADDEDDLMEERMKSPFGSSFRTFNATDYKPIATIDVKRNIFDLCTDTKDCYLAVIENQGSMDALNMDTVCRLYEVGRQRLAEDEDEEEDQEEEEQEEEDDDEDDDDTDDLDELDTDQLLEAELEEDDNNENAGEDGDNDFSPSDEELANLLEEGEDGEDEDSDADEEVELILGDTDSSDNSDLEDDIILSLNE", "assay": "E-ASMS affinity selection", "assay_type": "binding", "conditions": "DCAF1 beads, negative control protein"}, "PRMT5": {"target": "PRMT5 (Homo sapiens, UniProt O14744)", "sequence (O14744 whole entry)": "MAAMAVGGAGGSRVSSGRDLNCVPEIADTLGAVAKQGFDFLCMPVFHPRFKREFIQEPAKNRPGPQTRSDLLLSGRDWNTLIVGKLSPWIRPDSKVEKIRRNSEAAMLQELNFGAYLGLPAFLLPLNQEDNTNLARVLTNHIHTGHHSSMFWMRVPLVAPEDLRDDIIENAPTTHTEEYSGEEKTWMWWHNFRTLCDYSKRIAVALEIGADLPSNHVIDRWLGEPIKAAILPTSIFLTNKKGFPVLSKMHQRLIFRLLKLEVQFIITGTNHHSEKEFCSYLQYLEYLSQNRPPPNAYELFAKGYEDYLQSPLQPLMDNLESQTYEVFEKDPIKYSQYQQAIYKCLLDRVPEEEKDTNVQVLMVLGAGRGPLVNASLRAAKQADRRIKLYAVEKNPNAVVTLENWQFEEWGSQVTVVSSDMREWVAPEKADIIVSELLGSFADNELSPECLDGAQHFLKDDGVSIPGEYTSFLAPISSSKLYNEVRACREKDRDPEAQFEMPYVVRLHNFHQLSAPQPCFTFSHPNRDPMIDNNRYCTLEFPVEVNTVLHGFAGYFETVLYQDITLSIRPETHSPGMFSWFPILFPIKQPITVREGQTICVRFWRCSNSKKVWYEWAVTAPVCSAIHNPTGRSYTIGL", "sequence (Q9BQA1 whole entry partner)": "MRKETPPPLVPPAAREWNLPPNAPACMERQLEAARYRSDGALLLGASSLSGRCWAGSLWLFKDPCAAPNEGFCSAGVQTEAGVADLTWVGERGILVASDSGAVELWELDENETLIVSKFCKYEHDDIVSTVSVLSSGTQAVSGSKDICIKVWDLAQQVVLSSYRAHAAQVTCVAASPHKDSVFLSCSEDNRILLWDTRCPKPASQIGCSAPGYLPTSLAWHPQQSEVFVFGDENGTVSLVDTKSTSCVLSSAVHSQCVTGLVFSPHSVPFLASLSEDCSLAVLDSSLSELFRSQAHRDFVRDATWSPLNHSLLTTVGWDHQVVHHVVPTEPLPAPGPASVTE", "assay": "E-ASMS affinity selection", "assay_type": "binding"}, "USP21": {"target": "T3, USP21 (Homo sapiens, UniProt Q9UK80)", "T3 sequence (Q9UK80 1-565)": "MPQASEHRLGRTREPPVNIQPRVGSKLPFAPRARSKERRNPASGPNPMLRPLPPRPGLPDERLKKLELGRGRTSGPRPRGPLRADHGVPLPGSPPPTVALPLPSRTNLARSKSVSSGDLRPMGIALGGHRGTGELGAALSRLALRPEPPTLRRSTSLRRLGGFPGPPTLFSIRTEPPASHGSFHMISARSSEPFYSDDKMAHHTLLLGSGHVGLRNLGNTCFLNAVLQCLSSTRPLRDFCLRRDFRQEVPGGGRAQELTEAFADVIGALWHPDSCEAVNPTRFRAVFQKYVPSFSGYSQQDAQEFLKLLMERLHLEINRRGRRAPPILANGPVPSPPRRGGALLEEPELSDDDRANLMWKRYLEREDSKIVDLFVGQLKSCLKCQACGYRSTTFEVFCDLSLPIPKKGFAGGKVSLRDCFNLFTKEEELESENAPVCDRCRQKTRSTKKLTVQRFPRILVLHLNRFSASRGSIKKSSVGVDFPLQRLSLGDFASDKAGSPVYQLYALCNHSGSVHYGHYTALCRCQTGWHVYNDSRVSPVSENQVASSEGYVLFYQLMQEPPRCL", "assay": "E-ASMS affinity selection", "assay_type": "binding", "conditions": "USP21 beads, negative control protein"}, "DDB1": {"target": "DDB1 (Homo sapiens, UniProt Q16531)", "sequence (Q16531 whole entry)": "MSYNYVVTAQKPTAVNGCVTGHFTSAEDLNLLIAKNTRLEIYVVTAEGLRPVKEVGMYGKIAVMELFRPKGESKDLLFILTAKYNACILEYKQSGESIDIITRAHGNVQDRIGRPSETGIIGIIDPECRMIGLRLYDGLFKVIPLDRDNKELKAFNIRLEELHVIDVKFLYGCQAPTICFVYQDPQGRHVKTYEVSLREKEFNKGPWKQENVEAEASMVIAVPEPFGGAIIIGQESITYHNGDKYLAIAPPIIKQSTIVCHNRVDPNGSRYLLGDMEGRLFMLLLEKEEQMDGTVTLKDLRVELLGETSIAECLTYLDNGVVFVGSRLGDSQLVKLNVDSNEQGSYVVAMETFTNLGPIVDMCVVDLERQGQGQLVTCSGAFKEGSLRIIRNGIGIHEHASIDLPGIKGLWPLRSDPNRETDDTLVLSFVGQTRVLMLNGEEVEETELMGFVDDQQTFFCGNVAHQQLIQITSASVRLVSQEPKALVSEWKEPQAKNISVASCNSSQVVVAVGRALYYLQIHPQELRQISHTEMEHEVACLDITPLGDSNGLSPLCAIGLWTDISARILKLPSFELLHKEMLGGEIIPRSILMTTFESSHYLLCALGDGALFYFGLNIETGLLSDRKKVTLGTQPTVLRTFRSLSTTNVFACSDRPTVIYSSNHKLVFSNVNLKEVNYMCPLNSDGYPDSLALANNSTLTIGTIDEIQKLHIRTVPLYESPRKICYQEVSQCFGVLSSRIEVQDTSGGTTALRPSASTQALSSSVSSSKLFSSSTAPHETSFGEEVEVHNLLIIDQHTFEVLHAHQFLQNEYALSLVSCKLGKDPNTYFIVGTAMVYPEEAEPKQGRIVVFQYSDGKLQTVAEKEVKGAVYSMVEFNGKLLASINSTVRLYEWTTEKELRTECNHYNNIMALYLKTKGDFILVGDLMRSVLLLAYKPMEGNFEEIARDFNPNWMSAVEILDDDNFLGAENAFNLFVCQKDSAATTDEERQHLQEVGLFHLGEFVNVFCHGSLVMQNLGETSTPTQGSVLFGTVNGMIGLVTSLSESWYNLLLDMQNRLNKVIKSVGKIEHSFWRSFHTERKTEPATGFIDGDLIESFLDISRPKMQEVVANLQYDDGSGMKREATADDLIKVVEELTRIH", "assay": "E-ASMS affinity selection", "assay_type": "binding"}}, "note": "pKd: −log10 of the molar value."}
{"smiles": "CN1C(=O)C(c2c(-c3ccc(Cl)cc3)[nH]c3c2c(=O)[nH]c(=O)n3C)c2ccccc21", "note": "(stereo not drawn) [XS381295]", "values": [{"measurement": "Enantioselective binding (chiral chromatography of eluate)", "setting": "WDR91; WDR91-bead eluate", "value": "did not show enantioselectivity"}, {"measurement": "Enrichment in methanol eluate (E-ASMS)", "setting": "WDR91; WDR91 beads vs other proteins screened in parallel", "value": "enriched"}, {"measurement": "Deuterium incorporation (H/D exchange)", "setting": "[1]", "value": "showed deuterium incorporation"}]}
{"smiles": "CC1Cc2cc(-c3ccnc4ncnn34)ccc2O1", "note": "(stereo not drawn) [XS381774]", "values": [{"measurement": "Enantioselective binding (chiral chromatography of eluate)", "setting": "WDR55 [2]; WDR55-bead eluate", "value": "displayed enantioselectivity"}, {"measurement": "Enrichment in methanol eluate (E-ASMS)", "setting": "WDR55 [2]; WDR55 beads", "value": "enriched"}, {"measurement": "pKd", "setting": "WDR55 [3]", "value": 4.96}]}
{"smiles": "Nc1cccc2c1CN(C1CCC(=O)NC1=O)C2=O", "note": "(stereo not drawn) [Lenalidomide, lenalidomide]", "values": [{"measurement": "Enrichment in methanol eluate (E-ASMS)", "setting": "DCAF1", "value": "no significant enrichment"}, {"measurement": "Enrichment in methanol eluate (E-ASMS)", "setting": "PRMT5; PRMT5 beads, negative control protein", "value": "no significant enrichment"}, {"measurement": "Enrichment in methanol eluate (E-ASMS)", "setting": "USP21", "value": "no significant enrichment"}]}
{"smiles": "CCOc1cccc(C2CC(=O)Nc3c2c(C)nn3-c2ccc3nncn3n2)c1", "note": "(stereo not drawn) [XS381952]", "values": [{"measurement": "Enantioselective enrichment (chiral chromatography of eluate)", "setting": "DDB1; DDB1-bead eluate vs ratio of enantiomers in starting library", "value": "one of the two enantiomers was clearly enriched"}, {"measurement": "Enrichment in methanol eluate (E-ASMS)", "setting": "DDB1; DDB1 beads vs other proteins screened in parallel", "value": "specifically enriched"}]}
{"smiles": "Nc1ncnc2c1ccn2[C@@H]1O[C@H]([C@H](O)c2ccccc2)[C@@H](O)[C@H]1O", "note": "[(S)-LLY283]", "values": [{"measurement": "Enantioselective enrichment (chiral chromatography of eluate)", "setting": "PRMT5; PRMT5 eluate", "value": "Enantioselective enrichment"}]}
